Test results: PubChem BioAssay AID1963848 (Molecular Pharmacology Branch, DTP, NCI, 2024)

Test system: 379773-124-R-J2-PDC spheroid viability
Assay: Anticancer human tumor 379773-124-R-J2-PDC patient-derived endometrial carcinoma cell line growth inhibition [POLQ]
Conditions: spheroids with HUVEC and MSC; for IC50: curve of first compound; for viability, T/C: stronger effect = lower value
Method in brief: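 PDC + HUVEC + MSC complex spheroids; POLQ inhibitors ± partner drugs; top conc. at/near clinical Cmax, else 10 microM (SN-38 1 microM), half-log dilutions; 37 degrees C, 5% CO2.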

[1] = second compound 0.0316 µM, first compound 0.00316 µM
[2] = second compound 0.0316 µM, first compound 0.01 µM
[3] = second compound 0.0316 µM, first compound 0.0316 µM
[4] = second compound 0.0316 µM, first compound 0.1 µM
[5] = second compound 0.1 µM, first compound 0.00316 µM
[6] = second compound 0.1 µM, first compound 0.01 µM
[7] = second compound 0.1 µM, first compound 0.0316 µM
[8] = second compound 0.1 µM, first compound 0.1 µM
[9] = second compound 0.316 µM, first compound 0.00316 µM
[10] = second compound 0.316 µM, first compound 0.01 µM
[11] = second compound 0.316 µM, first compound 0.0316 µM
[12] = second compound 0.316 µM, first compound 0.1 µM
[13] = second compound 1 µM, first compound 0.00316 µM
[14] = second compound 1 µM, first compound 0.01 µM
[15] = second compound 1 µM, first compound 0.0316 µM
[16] = second compound 1 µM, first compound 0.1 µM
[17] = second compound 3.16 µM, first compound 0.00316 µM
[18] = second compound 3.16 µM, first compound 0.01 µM
[19] = second compound 3.16 µM, first compound 0.0316 µM
[20] = second compound 3.16 µM, first compound 0.1 µM
[21] = second compound 10 µM, first compound 0.00316 µM
[22] = second compound 10 µM, first compound 0.01 µM
[23] = second compound 10 µM, first compound 0.0316 µM
[24] = second compound 10 µM, first compound 0.1 µM
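Further: spheroids exposed to drugs for seven days before readout.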
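Wherever viability, T/C is given: percent viability relative to DMSO vehicle control taken as 100%.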

## C=CCn1c(=O)c2cnc(Nc3ccc(N4CCN(C)CC4)cc3)nc2n1-c1cccc(C(C)(C)O)n1 + Nc1ccc(C#CCN(C(=O)Cc2ncc(C(F)(F)F)cc2C(F)(F)F)c2ccc(F)cc2)nn1
Second compound 0.0316 µM
  IC50: 447 nM
Second compound 0.1 µM
  IC50: 488 nM
Second compound 0.316 µM
  IC50: 436 nM
Second compound 1 µM
  IC50: 447 nM
Second compound 3.16 µM
  IC50: 499 nM
Second compound 10 µM
  IC50: 451 nM
[1]
  viability, T/C: 90.6%
[2]
  viability, T/C: 101%
[3]
  viability, T/C: 93.7%
[4]
  viability, T/C: 104%
Second compound 0.0316 µM, first compound 0.316 µM
  viability, T/C: 70.3%
Second compound 0.0316 µM, first compound 1 µM
  viability, T/C: 2.92%
[5]
  viability, T/C: 95.5%
[6]
  viability, T/C: 99.2%
[7]
  viability, T/C: 107%
[8]
  viability, T/C: 111%
Second compound 0.1 µM, first compound 0.316 µM
  viability, T/C: 78.1%
Second compound 0.1 µM, first compound 1 µM
  viability, T/C: 3.57%
[9]
  viability, T/C: 95.7%
[10]
  viability, T/C: 91.7%
[11]
  viability, T/C: 97%
[12]
  viability, T/C: 92.4%
Second compound 0.316 µM, first compound 0.316 µM
  viability, T/C: 68.1%
Second compound 0.316 µM, first compound 1 µM
  viability, T/C: 3.12%
[13]
  viability, T/C: 103%
[14]
  viability, T/C: 103%
[15]
  viability, T/C: 100%
[16]
  viability, T/C: 97.5%
Second compound 1 µM, first compound 0.316 µM
  viability, T/C: 69.8%
Second compound 1 µM, first compound 1 µM
  viability, T/C: 3.73%
[17]
  viability, T/C: 113%
[18]
  viability, T/C: 99.3%
[19]
  viability, T/C: 96.1%
[20]
  viability, T/C: 105%
Second compound 3.16 µM, first compound 0.316 µM
  viability, T/C: 80.9%
Second compound 3.16 µM, first compound 1 µM
  viability, T/C: 3.02%
[21]
  viability, T/C: 101%
[22]
  viability, T/C: 88.8%
[23]
  viability, T/C: 92.3%
[24]
  viability, T/C: 88.6%
Second compound 10 µM, first compound 0.316 µM
  viability, T/C: 71.4%
Second compound 10 µM, first compound 1 µM
  viability, T/C: 2.81%

## CC[C@@]1(O)C(=O)OCc2c1cc1n(c2=O)Cc2cc3c(CN(C)C)c(O)ccc3nc2-1 + Nc1ccc(C#CCN(C(=O)Cc2ncc(C(F)(F)F)cc2C(F)(F)F)c2ccc(F)cc2)nn1
Second compound 0.0316 µM
  IC50: 29.5 nM
Second compound 0.1 µM
  IC50: 29 nM
Second compound 0.316 µM
  IC50: 26 nM
Second compound 1 µM
  IC50: 26.4 nM
Second compound 3.16 µM
  IC50: 24.5 nM
Second compound 10 µM
  IC50: 22.5 nM
Second compound 0.0316 µM, first compound 0.000316 µM
  viability, T/C: 96.7%
Second compound 0.0316 µM, first compound 0.001 µM
  viability, T/C: 89%
[1]
  viability, T/C: 80.7%
[2]
  viability, T/C: 96%
[3]
  viability, T/C: 47.3%
[4]
  viability, T/C: 22.3%
Second compound 0.1 µM, first compound 0.000316 µM
  viability, T/C: 90.8%
Second compound 0.1 µM, first compound 0.001 µM
  viability, T/C: 87.6%
[5]
  viability, T/C: 91.4%
[6]
  viability, T/C: 89.6%
[7]
  viability, T/C: 46.7%
[8]
  viability, T/C: 19.8%
Second compound 0.316 µM, first compound 0.000316 µM
  viability, T/C: 93%
Second compound 0.316 µM, first compound 0.001 µM
  viability, T/C: 96.3%
[9]
  viability, T/C: 102%
[10]
  viability, T/C: 86.2%
[11]
  viability, T/C: 42.6%
[12]
  viability, T/C: 20.8%
Second compound 1 µM, first compound 0.000316 µM
  viability, T/C: 100%
Second compound 1 µM, first compound 0.001 µM
  viability, T/C: 92%
[13]
  viability, T/C: 92.2%
[14]
  viability, T/C: 83.7%
[15]
  viability, T/C: 43.6%
[16]
  viability, T/C: 21.2%
Second compound 3.16 µM, first compound 0.000316 µM
  viability, T/C: 110%
Second compound 3.16 µM, first compound 0.001 µM
  viability, T/C: 90.5%
[17]
  viability, T/C: 85.8%
[18]
  viability, T/C: 85.1%
[19]
  viability, T/C: 39.6%
[20]
  viability, T/C: 18.9%
Second compound 10 µM, first compound 0.000316 µM
  viability, T/C: 94%
Second compound 10 µM, first compound 0.001 µM
  viability, T/C: 79.9%
[21]
  viability, T/C: 81.9%
[22]
  viability, T/C: 83.3%
[23]
  viability, T/C: 36%
[24]
  viability, T/C: 21.8%
